# pIC50: −log10 of the molar value.
# Target: T1, human FASN (Homo sapiens, UniProt P49327)
# T1 construct: was purified from SKBR3 cells using procedures modified from those in Jayakumar et al; endogenous in cells; host or cells: SKBR3 human breast cancer cells (ATCC); Endogenous enzyme purified by ammonium sulfate precipitation and a mono Q column
# Assay: FASN NADPH Consumption Assay
# Format: biochemical
# Conditions: human FASN purified from SKBR3 cells; starred symbols
# Experimental: Human FASN protein (SEQ ID NO. 1) was purified from SKBR3 cells using procedures modified from those in Jayakumar et al. PNAS 1995, 92:8695-8699. SKBR3 cells were obtained from ATCC and grown in DMEM high glucose medium supplemented with 10% FBS, 1 μg/mL bovine pancreas insulin, 100 U/mL penicillin and 100 µg/mL streptomycin. The confluent cells were trypsinized and washed three times with PBS buffer before frozen in liquid N2 and stored at −80° C. Frozen cells were thawed on ice and resuspended in lysis buffer (25 mM Tris-HCl, pH 7.0, 15 mM NaCl, 1 mM EDTA, and 1 mM DTT) with protease inhibitors. The cells were lysed by sonication, and the cell debris was removed by centrifugation at 20,000 rpm for 30 min. To the supernatant, neutralized saturated ammonium sulfate solution was added to a final concentration of 35%. The solution was left on ice for 1 hr, and the precipitated proteins were harvested by centrifugation at 20,000 rpm for 30 min. The proteins were redissolved in lysis buffer without NaCl and loaded on a mono Q column. Bound proteins were eluted with a linear gradient of NaCl in lysis buffer. Each fraction was analyzed by SDS-PAGE and FASN NADPH consumption assay. The fractions containing FASN were pooled and concentrated to 2-3 mg/mL. Glycerol was added to 20%, and the protein was frozen in liquid N2 and stored at −80° C.
# All chemicals were purchased from Sigma (St. Louis, Mo.). The procedures of NADPH consumption assay were similar to those described in Cox et al., PNAS 1983, 80:4233-4237. On a 96-well polypropylene microplate, dilution series (typical concentrations 60 nM-1.0 mM) of test compounds were prepared in DMSO, of which 4.0 μL each was transferred to a black polystyrene assay microplate and mixed with 36 μL FASN assay buffer (50 mM potassium phosphate, pH 7.0, 1.0 mM EDTA, 0.01% NP-40) plus 5.0 mM fresh DTT. FASN protein (40 μL 150 nM FASN) was added per well, and the microplate was incubated at 37° C. for 30 min. Enzyme activity measurement was initiated by addition of 20 μL 5× substrate mixture to final concentrations of 60 nM FASN, 2.4 nM-40 μM compound, 0.2 mM NADPH, 50 μM butyryl-CoA, 0.5 mM malonyl-CoA in 100 μL assay buffer plus 5.0 mM DTT and 4.0% DMSO. NADPH consumption was monitored kinetically by fluorescence (λEx=340 nm, λEm=460 nm) on an EnVision 2100 multilabel plate reader (Perkin Elmer, Waltham, Mass.). FASN enzyme activity (slope) in the presence of 4% DMSO was used as maximum control, whereas background (minimum control) was measured by omission of malonyl-CoA in the substrate mixture. Inhibition curves were fitted by a logistic function to yield IC50 values:
# Compounds were assayed as inhibitors of human FASN using the above-described FASN Scintillation Proximity Flashplate Assay (IC50; nM) or FASN NADPH Consumption Assay (*) (IC50; nM). The corresponding activity of the isolated compound is also provided along with the measured mass (ES^+).
# T1 sequence (P49327 whole entry): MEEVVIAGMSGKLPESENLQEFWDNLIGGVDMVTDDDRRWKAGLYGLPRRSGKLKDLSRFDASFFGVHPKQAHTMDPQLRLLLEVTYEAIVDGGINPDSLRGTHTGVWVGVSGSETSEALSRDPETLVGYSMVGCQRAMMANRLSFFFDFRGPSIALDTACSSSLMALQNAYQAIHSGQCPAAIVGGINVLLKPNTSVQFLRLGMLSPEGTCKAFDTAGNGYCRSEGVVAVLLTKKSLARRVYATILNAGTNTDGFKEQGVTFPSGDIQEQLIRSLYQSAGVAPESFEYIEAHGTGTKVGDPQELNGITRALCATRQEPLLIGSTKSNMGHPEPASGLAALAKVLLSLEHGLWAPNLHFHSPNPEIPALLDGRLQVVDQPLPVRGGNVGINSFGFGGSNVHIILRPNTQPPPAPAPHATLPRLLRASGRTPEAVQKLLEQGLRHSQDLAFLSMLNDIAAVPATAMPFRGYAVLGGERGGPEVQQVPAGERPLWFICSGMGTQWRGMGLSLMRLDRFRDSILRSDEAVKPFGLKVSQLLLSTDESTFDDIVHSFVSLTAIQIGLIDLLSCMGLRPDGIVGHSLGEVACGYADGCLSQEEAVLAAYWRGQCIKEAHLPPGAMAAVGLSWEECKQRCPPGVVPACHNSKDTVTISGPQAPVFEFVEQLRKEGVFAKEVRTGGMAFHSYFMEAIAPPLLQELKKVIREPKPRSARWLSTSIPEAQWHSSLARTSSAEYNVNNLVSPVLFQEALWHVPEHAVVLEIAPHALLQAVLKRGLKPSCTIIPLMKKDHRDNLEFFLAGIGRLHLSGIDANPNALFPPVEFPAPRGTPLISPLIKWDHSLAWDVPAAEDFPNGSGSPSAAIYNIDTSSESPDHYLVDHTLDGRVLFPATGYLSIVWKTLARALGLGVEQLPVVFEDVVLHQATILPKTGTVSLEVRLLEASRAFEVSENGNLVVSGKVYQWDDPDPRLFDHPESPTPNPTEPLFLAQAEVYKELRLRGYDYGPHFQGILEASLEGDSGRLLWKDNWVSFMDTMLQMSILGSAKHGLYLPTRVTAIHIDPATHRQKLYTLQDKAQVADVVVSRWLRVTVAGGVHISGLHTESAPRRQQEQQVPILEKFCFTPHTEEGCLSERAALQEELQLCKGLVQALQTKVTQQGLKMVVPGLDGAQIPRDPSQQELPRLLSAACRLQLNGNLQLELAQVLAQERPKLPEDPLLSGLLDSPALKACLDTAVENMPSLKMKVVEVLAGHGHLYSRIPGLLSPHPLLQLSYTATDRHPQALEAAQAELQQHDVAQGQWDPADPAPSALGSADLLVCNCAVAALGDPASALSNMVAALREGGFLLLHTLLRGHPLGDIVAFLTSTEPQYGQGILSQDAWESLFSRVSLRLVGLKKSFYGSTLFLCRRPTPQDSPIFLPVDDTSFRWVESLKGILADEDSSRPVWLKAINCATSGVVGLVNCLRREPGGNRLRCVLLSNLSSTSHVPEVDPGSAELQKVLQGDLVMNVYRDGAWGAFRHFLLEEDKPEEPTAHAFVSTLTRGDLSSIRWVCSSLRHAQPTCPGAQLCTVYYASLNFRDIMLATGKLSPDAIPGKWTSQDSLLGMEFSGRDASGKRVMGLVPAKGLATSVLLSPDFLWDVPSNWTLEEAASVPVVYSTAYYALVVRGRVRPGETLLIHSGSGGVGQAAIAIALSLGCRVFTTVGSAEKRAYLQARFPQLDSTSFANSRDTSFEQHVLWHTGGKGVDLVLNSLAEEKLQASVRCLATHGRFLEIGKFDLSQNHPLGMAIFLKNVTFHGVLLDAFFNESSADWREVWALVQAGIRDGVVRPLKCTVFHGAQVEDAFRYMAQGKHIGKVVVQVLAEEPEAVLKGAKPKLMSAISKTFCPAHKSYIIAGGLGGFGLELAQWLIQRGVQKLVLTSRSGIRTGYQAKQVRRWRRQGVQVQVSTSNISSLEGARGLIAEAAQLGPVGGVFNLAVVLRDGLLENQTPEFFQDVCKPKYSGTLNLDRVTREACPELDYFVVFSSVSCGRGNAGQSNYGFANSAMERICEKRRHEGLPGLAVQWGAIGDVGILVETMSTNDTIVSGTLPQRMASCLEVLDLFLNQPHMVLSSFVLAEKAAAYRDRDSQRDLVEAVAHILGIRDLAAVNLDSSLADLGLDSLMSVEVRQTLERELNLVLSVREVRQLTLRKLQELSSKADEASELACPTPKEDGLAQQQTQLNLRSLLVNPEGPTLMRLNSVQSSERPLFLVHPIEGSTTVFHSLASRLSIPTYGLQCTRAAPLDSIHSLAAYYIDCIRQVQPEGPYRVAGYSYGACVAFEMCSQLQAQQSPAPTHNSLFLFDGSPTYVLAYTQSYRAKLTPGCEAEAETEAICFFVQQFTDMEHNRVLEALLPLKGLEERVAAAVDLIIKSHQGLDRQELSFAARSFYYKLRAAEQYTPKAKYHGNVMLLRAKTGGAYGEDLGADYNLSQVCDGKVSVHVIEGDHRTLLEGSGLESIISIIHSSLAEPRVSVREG
row,Compound,pIC50
1,CCN(C(=O)n1nnn(-c2c(Cl)cccc2Cl)c1=O)c1cccc(CO[Si](C)(C)C(C)(C)C)c1,6.60 to 7.22
2,O=C(C1CCCN(C(=O)n2nnn(-c3c(Cl)cccc3Cl)c2=O)C1)N1CCCC1 (stereo not shown),< 5.00
3,CS(=O)(=O)NCCCN(C(=O)n1nnn(-c2c(Cl)cccc2Cl)c1=O)C1CCCCC1,5.00 to 6.00
4,CC(C)(C)OC(=O)N(C(=O)n1nnn(-c2c(F)cccc2F)c1=O)c1ccco1,5.00 to 6.00
5,CCN(C(=O)n1nnn(-c2ccccc2C(C)C)c1=O)C1CCCCC1,5.00 to 6.00
6,CCN(C(=O)n1nnn(-c2c(Cl)cccc2Cl)c1=O)C1CCC(C(=O)O)CC1 (stereo not shown),5.00 to 6.00
7,CCN(C(=O)n1nnn(-c2c(F)cccc2F)c1=O)c1ccccc1C,6.60 to 7.22
8,CC1CCc2ccccc2N1C(=O)n1nnn(-c2c(F)cccc2F)c1=O (stereo not shown),6.60 to 7.22
9,CN(C(=O)n1nnn(-c2c(F)cccc2F)c1=O)c1ccc(C#Cc2ccccc2)cc1,6.60 to 7.22
10,CCc1ccccc1-n1nnn(C(=O)N(CC)C2CCCCC2)c1=O,5.00 to 6.00
11,CCN(C(=O)n1nnn(-c2ccccc2C)c1=O)C1CCCCC1,5.00 to 6.00
12,CN1C2CCC1CC(N(CCc1ccccc1)C(=O)n1nnn(-c3c(Cl)cccc3Cl)c1=O)C2 (stereo not shown),< 5.00
13,COc1ccccc1N(C)C(=O)n1nnn(-c2c(F)cccc2F)c1=O,6.00 to 6.60
14,CN(C(=O)n1nnn(-c2ccccc2F)c1=O)c1ccccc1,6.00 to 6.60
15,O=C(C1CCCN(C(=O)n2nnn(-c3c(Cl)cccc3Cl)c2=O)C1)N1CCCCC1 (stereo not shown),5.00 to 6.00
16,CC(C)(C)OC(=O)N[C@H]1CCN(C(=O)n2nnn(-c3c(Cl)cccc3Cl)c2=O)C1,< 5.00
17,O=C(Nc1ccccc1)n1nnn(-c2ccccc2)c1=O,< 5.00
18,CCN(C(=O)n1nnn(-c2ccccc2OC)c1=O)c1cc(C(=O)O)ccc1Cl,> 7.22

row,Compound,pIC50
1,CCN(C(=O)n1nnn(-c2c(F)cccc2F)c1=O)c1cccc(C)c1,> 7.22
2,CCN(C(=O)n1nnn(-c2c(F)cccc2C#Cc2ccccc2C)c1=O)c1ccccc1,6.60 to 7.22
3,COc1ccc(C(=O)O)cc1N(CCCCc1ccccc1)C(=O)n1nnn(-c2ccccc2OC)c1=O,6.00 to 6.60
4,O=C(N1CCCc2ccc(C(F)(F)F)cc21)n1nnn(-c2c(F)cccc2F)c1=O,6.00 to 6.60
5,CCN(C(=O)n1nnn(-c2c(Cl)cccc2Cl)c1=O)c1cc(C(=O)O)ccc1Cl,> 7.22
6,CCN(C(=O)n1nnn(-c2c(Cl)cccc2Cl)c1=O)c1cccc(NS(=O)(=O)C(F)(F)F)c1,6.60 to 7.22
7,CCNC(=O)N1CCC(N(CC)C(=O)n2nnn(-c3c(Cl)cccc3Cl)c2=O)CC1,5.00 to 6.00
8,O=C(O)C1CCN(C(=O)n2nnn(-c3c(Cl)cccc3Cl)c2=O)CC1,< 5.00
9,O=C(N1CCOc2ccccc21)n1nnn(-c2c(F)cccc2F)c1=O,5.00 to 6.00
10,COc1ccc(C(=O)O)cc1N(CCCCc1ccccc1)C(=O)n1nnn(-c2c(F)cccc2F)c1=O,6.60 to 7.22
11,CCNC(=O)n1nnn(-c2ccccc2)c1=O,< 5.00
12,CN(C(=O)n1nnn(-c2c(F)cccc2F)c1=O)c1ccccn1,6.00 to 6.60
13,CCN(CC)C(=O)n1nnn(-c2ccccc2Cl)c1=O,5.00 to 6.00
14,CCN(C(=O)n1nnn(-c2ccccc2Cl)c1=O)C1CCCCC1,5.00 to 6.00
15,CC(C)C[C@@H](NC=O)C(=O)NCCCN(C(=O)n1nnn(-c2c(Cl)cccc2Cl)c1=O)C1CCCCC1,< 5.00
16,CCN(C(=O)n1nnn(-c2c(F)cccc2F)c1=O)c1ccc(C#CCC2CCCCC2)cc1F,6.60 to 7.22
17,CN(C(=O)n1nnn(-c2c(Cl)cccc2Cl)c1=O)c1ccccc1,6.60 to 7.22

# Other lines, results leading:
row,pIC50,Compound
1,6.60 to 7.22,Cc1ccccc1CCc1cccc(F)c1-n1nnn(C(=O)N2CCCCc3ccccc32)c1=O
2,6.60 to 7.22,O=C(N1CCCc2cc(Br)ccc21)n1nnn(-c2c(F)cccc2F)c1=O
3,6.60 to 7.22,CN(C(=O)n1nnn(-c2ccccc2Cl)c1=O)c1ccc(Br)cc1
4,6.60 to 7.22,CCN(C(=O)n1nnn(-c2c(Cl)cccc2Cl)c1=O)c1ccc(N)cc1
5,5.00 to 6.00,O=C(NCCCN(C(=O)n1nnn(-c2c(Cl)cccc2Cl)c1=O)C1CCCCC1)c1cccnc1
6,< 5.00,O=C(N1CCOCC1)n1nnn(-c2ccccc2Cl)c1=O
7,5.00 to 6.00,CCN(C(=O)n1nnn(-c2c(Cl)cccc2Cl)c1=O)c1cccc(C(=O)O)c1OC
8,5.00 to 6.00,CCN(C(=O)n1nnn(-c2c(Cl)cccc2Cl)c1=O)C1CCCN(C(=O)CCC(=O)O)C1 (stereo not shown)
9,< 5.00,CCN(C(=O)n1nnn(-c2ccc([N+](=O)[O-])cc2Cl)c1=O)C1CCCCC1
10,6.60 to 7.22,CN(C(=O)n1nnn(-c2c(F)cccc2F)c1=O)c1ccccc1
11,6.00 to 6.60,CCN(C(=O)n1nnn(-c2c(Cl)cccc2Cl)c1=O)c1ccc([N+](=O)[O-])cc1F
12,6.60 to 7.22,CN(C(=O)n1nnn(-c2c(F)cccc2F)c1=O)c1ccccc1Br
13,6.60 to 7.22,C=CCN(C(=O)n1nnn(-c2ccccc2Cl)c1=O)c1ccccc1
14,> 7.22,CC(C)N(C(=O)n1nnn(-c2c(F)cccc2F)c1=O)c1cccc(C(=O)OCc2ccccc2)c1
15,< 5.00,O=C(N(Cc1ccco1)C1CCCCC1)n1nnn(-c2c(Cl)cccc2Cl)c1=O
16,5.00 to 6.00,CCN(C(=O)n1nnn(-c2ccccc2I)c1=O)C1CCCCC1
17,6.60 to 7.22,CCN(C(=O)n1nnn(-c2c(Cl)cccc2Cl)c1=O)c1ccc(C(=O)OCc2ccccc2)c(Cl)c1
18,6.60 to 7.22,CCN(C(=O)n1nnn(-c2ccccc2Oc2ccccc2)c1=O)c1ccccc1F
19,6.60 to 7.22,CCN(C(=O)n1nnn(-c2c(F)cccc2F)c1=O)c1c(F)cccc1Cl

row,pIC50,Compound
1,< 5.00,CCN(C(=O)n1nnn(-c2c(Cl)cccc2Cl)c1=O)C1CCC(C(=O)OCc2ccc(OC)cc2)CC1 (stereo not shown)
2,6.60 to 7.22,CCN(C(=O)n1nnn(-c2ccccc2-c2ccccc2)c1=O)c1ccccc1F
3,5.00 to 6.00,CS(=O)(=O)NCCCN(C(=O)n1nnn(-c2c(Cl)cccc2Cl)c1=O)c1ccc(C(=O)O)cc1
4,6.60 to 7.22,COC(=O)C1CCc2ccccc2N1C(=O)n1nnn(-c2c(F)cccc2F)c1=O (stereo not shown)
5,6.60 to 7.22,CCN(C(=O)n1nnn(-c2c(Cl)cccc2Cl)c1=O)c1ccc(C(=O)OCc2ccccc2)c(OC)c1
6,< 5.00,CCN(C(=O)n1nnn(-c2ccccc2C(C)(C)C)c1=O)C1CCCCC1
7,6.00 to 6.60,COc1ccc(C(=O)O)cc1N(CCCc1ccccc1)C(=O)n1nnn(-c2ccccc2OC)c1=O
8,5.00 to 6.00,C=CCN(C(=O)n1nnn(-c2c(Cl)cccc2Cl)c1=O)c1ccccc1
9,> 7.22,CCN(C(=O)n1nnn(-c2c(F)cccc2F)c1=O)c1ccccc1
10,6.60 to 7.22,CCN(C(=O)n1nnn(-c2c(F)cccc2Br)c1=O)c1ccccc1
11,6.60 to 7.22,COc1cccc(F)c1-n1nnn(C(=O)N(c2cccc(C(=O)O)c2)C2CC2)c1=O
12,5.00 to 6.00,CCN(C(=O)n1nnn(-c2c(Cl)cccc2Cl)c1=O)C1CCCC(C(=O)N2CCOCC2)C1 (stereo not shown)
13,6.60 to 7.22,O=CNc1ccc2c(c1)CCCN2C(=O)n1nnn(-c2c(F)cccc2F)c1=O
14,< 5.00,CCN(C(=O)n1nnn(-c2c(C)cccc2C)c1=O)C1CCCCC1
15,6.60 to 7.22,CCN(C(=O)n1nnn(-c2ccccc2OC)c1=O)c1ccc(C(=O)OCc2ccccc2)c(OC)c1
16,5.00 to 6.00,CCN(C(=O)n1nnn(-c2ccccc2C#N)c1=O)C1CCCCC1
17,6.60 to 7.22,CCN(C(=O)n1nnn(-c2ccccc2)c1=O)c1ccc(C(=O)O)c(OC)c1
18,5.00 to 6.00,O=C(O)c1ccc(N(CCc2cccnc2)C(=O)n2nnn(-c3c(Cl)cccc3Cl)c2=O)cc1
19,6.00 to 6.60,CCN(C(=O)n1nnn(-c2c(OC)cccc2OC)c1=O)c1ccc(C(=O)OCc2ccccc2)c(OC)c1

# Reference: US9346769B2, “Tetrazolones as inhibitors of fatty acid synthase” (Infinity Pharmaceuticals, Inc., priority 2010, dated 2016)
